Consider seven compounds from patent US20220323406A1, “METHODS AND COMPOSITIONS FOR DIFFERENTIATING STEM CELLS” (Massachusetts Institute of Technology, priority 2019, published 2022).

For assay [1], the system named is ENR+CD organoids (ISC to Paneth cell differentiation). Kind of assay: Primary screen: CCh-stimulated lysozyme secretion LYZ.S, 2.5-D 384-well ENR+CD organoid differentiation. In kind it is cell-based, mouse. As to conditions: primary screen. The text has this:
(§1) High-throughput screening.

The subject of assay [2] is ENR+CD organoids. Kind of assay: Primary screen: ATP (CellTiter-Glo 3D, CTG) cell number/viability, 2.5-D 384-well ENR+CD organoids.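 As to all read-outs here: compounds given at plating and again on day 3 over a 6-day differentiation from ENR+CV stem-cell-enriched precursors, ATP measured on day 6, plate median as control.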 The conditions noted are these: primary screen; for Z.CTG: standard z score. A general note: In ATP-based viability assays light output follows the ATP content of the culture.
For assay [3], the system named is ENR+CD organoids (ISC to Paneth cell differentiation). Kind of assay: Primary screen: basal (non-stimulated) lysozyme secretion LYZ.NS, 2.5-D 384-well ENR+CD organoid differentiation. It is filed as cell-based, mouse. As to conditions: primary screen; for Z.LYZ.NS: standard z score.
From the text: as §1

The mark [4] stands for this setting: dose 0.08 uM, FC relative to plate median.
The mark [5] stands for this setting: dose 0.40 uM, FC relative to plate median.
[6] abbreviates: dose 2.00 uM, FC relative to plate median.
[7] abbreviates: dose 10.00 uM, FC relative to plate median.
Where [8] appears, read: 1st dose row of the treatment (0.08 uM by row order; dose not reprinted).
Where [9] appears, read: 2nd dose row of the treatment (0.40 uM by row order; dose not reprinted).
Where [10] appears, read: 3rd dose row of the treatment (2.00 uM by row order; dose not reprinted).
Where [11] appears, read: 4th dose row of the treatment (10.00 uM by row order; dose not reprinted).

Structures are written as SMILES.

Take `O=C(O)CNC(=O)c1c(O)c2ccccc2n(Cc2ccccc2)c1=O` [IOX2]: the “Dose.FC.LYZ.S (log2 fold change)” value is 0.047 in assay [1] (dose 0.08 uM), 0.071 in assay [1] (dose 0.40 uM), 0.001 in assay [1] (dose 2.00 uM) and −0.049 in assay [1] (dose 10.00 uM). Besides, the “Dose.FC.CTG (log2 fold change)” value stood at 0.149 in assay [2] (dose 0.08 uM), 0.078 in assay [2] (dose 0.40 uM), 0.097 in assay [2] (dose 2.00 uM) and 0.001 in assay [2] (dose 10.00 uM). In addition, the “Z.CTG (standard z score)” value in assay [2] (dose 0.08 uM) worked out at 0.356; in assay [2] (dose 0.40 uM), 0.185; in assay [2] (dose 2.00 uM), 0.232; in assay [2] (dose 10.00 uM), 0.002. Also, the “Dose.FC.LYZ.NS (log2 fold change)” value in assay [3] (dose 0.08 uM) is on record as 0.029; in assay [3] (dose 0.40 uM), 0.028; in assay [3] (dose 2.00 uM) it was 0.043; in assay [3] (dose 10.00 uM), −0.045. Besides, the “Z.LYZ.NS (standard z score)” value in assay [3] (dose 0.08 uM) was 0.254; in assay [3] (dose 0.40 uM), 0.246; in assay [3] (dose 2.00 uM), 0.376; in assay [3] (dose 10.00 uM), −0.388.

On to `Cc1ccc(C(=O)N(CCCN)[C@@H](c2oc3cc(Cl)ccc3c(=O)c2Cc2ccccc2)C(C)C)cc1` [SB743921], for which the Dose.FC.LYZ.S was −0.321 log2 fold change in assay [1] (setting [4]), −0.329 log2 fold change in assay [1] (setting [5]), −0.340 log2 fold change in assay [1] (setting [6]) and −0.350 log2 fold change in assay [1] (setting [7]). Further, the Dose.FC.CTG in assay [2] (setting [4]) is on record as −0.485 log2 fold change; in assay [2] (setting [5]), −0.777 log2 fold change; in assay [2] (setting [6]), −0.485 log2 fold change; in assay [2] (setting [7]), −0.542 log2 fold change. In addition, the Z.CTG in assay [2] (dose 0.08 uM) is listed as −1.159; in assay [2] (dose 0.40 uM), −1.855; in assay [2] (dose 2.00 uM), −1.158; in assay [2] (dose 10.00 uM), −1.294. Also, the Dose.FC.LYZ.NS in assay [3] (setting [4]) is −0.232 log2 fold change; in assay [3] (setting [5]) it was −0.247 log2 fold change; in assay [3] (setting [6]), −0.264 log2 fold change; in assay [3] (setting [7]) it was −0.238 log2 fold change. For the same compound, the Z.LYZ.NS in assay [3] (dose 0.08 uM) is reported as −2.017; in assay [3] (dose 0.40 uM) it was −2.148; in assay [3] (dose 2.00 uM), −2.297; in assay [3] (dose 10.00 uM), −2.068.

In the case of `O=C(Nc1ccccc1Br)N[C@@H]1CCN(c2ccc(C(F)(F)F)cn2)C1` [SB705498], the Dose.FC.LYZ.S is reported as 0.094 log2 fold change in assay [1] (setting [4]), 0.023 log2 fold change in assay [1] (setting [5]), −0.030 log2 fold change in assay [1] (setting [6]) and −0.023 log2 fold change in assay [1] (setting [7]). Besides, the Dose.FC.CTG in assay [2] (setting [4]) is 0.133 log2 fold change; in assay [2] (setting [5]) it was −0.043 log2 fold change; in assay [2] (setting [6]), −0.004 log2 fold change; in assay [2] (setting [7]), −0.037 log2 fold change. Besides, the Z.CTG is 0.318 in assay [2] (dose 0.08 uM), −0.102 in assay [2] (dose 0.40 uM), −0.009 in assay [2] (dose 2.00 uM) and −0.089 in assay [2] (dose 10.00 uM). For the same compound, the Dose.FC.LYZ.NS is given as 0.074 log2 fold change in assay [3] (setting [4]), −0.050 log2 fold change in assay [3] (setting [5]), −0.001 log2 fold change in assay [3] (setting [6]) and −0.018 log2 fold change in assay [3] (setting [7]). Also, the Z.LYZ.NS in assay [3] (dose 0.08 uM) was 0.642; in assay [3] (dose 0.40 uM) it was −0.433; in assay [3] (dose 2.00 uM) it was −0.008; in assay [3] (dose 10.00 uM), −0.154.

Regarding `NC(=O)Nc1sc(-c2ccc(F)cc2)cc1C(N)=O` [TPCA-1], the Dose.FC.LYZ.S is 0.041 log2 fold change in assay [1] (dose 0.08 uM), −0.029 log2 fold change in assay [1] (dose 0.40 uM), −0.054 log2 fold change in assay [1] (dose 2.00 uM) and −0.294 log2 fold change in assay [1] (dose 10.00 uM). The Dose.FC.CTG in assay [2] (dose 0.08 uM) was −0.061 log2 fold change; in assay [2] (dose 0.40 uM) it was −0.004 log2 fold change; in assay [2] (dose 2.00 uM), −0.005 log2 fold change; in assay [2] (dose 10.00 uM) it was −0.531 log2 fold change. The “Z.CTG (standard z score)” value in assay [2] (dose 0.08 uM) is −0.146; in assay [2] (dose 0.40 uM), −0.010; in assay [2] (dose 2.00 uM), −0.012; in assay [2] (dose 10.00 uM) it was −1.269. The Dose.FC.LYZ.NS in assay [3] (dose 0.08 uM) was 0.072 log2 fold change; in assay [3] (dose 0.40 uM) it was −0.047 log2 fold change; in assay [3] (dose 2.00 uM), −0.059 log2 fold change; in assay [3] (dose 10.00 uM), −0.197 log2 fold change. Further, the “Z.LYZ.NS (standard z score)” value is on record as 0.627 in assay [3] (dose 0.08 uM), −0.413 in assay [3] (dose 0.40 uM), −0.514 in assay [3] (dose 2.00 uM) and −1.711 in assay [3] (dose 10.00 uM).

Take `O=C(O)C(Cc1ccccc1[N+](=O)[O-])=NNc1nc(-c2ccc(Cl)c(Cl)c2)cs1` (mixture of isomers) [4EGI-1]: the “SSMD.LYZ.S_Rep (strictly standardized mean difference)” value is on record as −0.264 in assay [1] (setting [8]), 0.326 in assay [1] (setting [9]), −0.328 in assay [1] (setting [10]) and 0.189 in assay [1] (setting [11]). The “Z.LYZ.S (standard z score)” value in assay [1] (setting [8]) is −0.236; in assay [1] (setting [9]) it was 0.352; in assay [1] (setting [10]), −0.380; in assay [1] (setting [11]), 0.366. Further, the Dose.FC.LYZ.S in assay [1] (dose 0.08 uM) is −0.037 log2 fold change; in assay [1] (dose 0.40 uM), 0.054 log2 fold change; in assay [1] (dose 2.00 uM), −0.059 log2 fold change; in assay [1] (dose 10.00 uM), 0.057 log2 fold change. Besides, the “SSMD.CTG.Rep (strictly standardized mean difference)” value in assay [2] (setting [8]) is on record as −0.352; in assay [2] (setting [9]), −0.158; in assay [2] (setting [10]), 0.407; in assay [2] (setting [11]), −0.283. Further, the Dose.FC.CTG in assay [2] (dose 0.08 uM) is recorded as −0.160 log2 fold change; in assay [2] (dose 0.40 uM) it was −0.131 log2 fold change; in assay [2] (dose 2.00 uM) it was 0.127 log2 fold change; in assay [2] (dose 10.00 uM) it was −0.109 log2 fold change. Moreover, the “Z.CTG (standard z score)” value in assay [2] (dose 0.08 uM) is −0.383; in assay [2] (dose 0.40 uM), −0.314; in assay [2] (dose 2.00 uM) it was 0.304; in assay [2] (dose 10.00 uM) it was −0.261. Moreover, the “SSMD.LYZ.NS_Rep (strictly standardized mean difference)” value is reported as 0.378 in assay [3] (setting [8]), 0.264 in assay [3] (setting [9]), 0.252 in assay [3] (setting [10]) and −0.257 in assay [3] (setting [11]). Moreover, the Dose.FC.LYZ.NS in assay [3] (dose 0.08 uM) is 0.110 log2 fold change; in assay [3] (dose 0.40 uM), 0.036 log2 fold change; in assay [3] (dose 2.00 uM) it was 0.069 log2 fold change; in assay [3] (dose 10.00 uM) it was −0.034 log2 fold change. The “Z.LYZ.NS (standard z score)” value in assay [3] (dose 0.08 uM) is given as 0.956; in assay [3] (dose 0.40 uM), 0.315; in assay [3] (dose 2.00 uM), 0.597; in assay [3] (dose 10.00 uM) it was −0.300.

For the compound `Nc1nc(N)c2nc(-c3ccccc3)c(N)nc2n1` [Triamterene], the Dose.FC.LYZ.S in assay [1] (dose 0.08 uM) is listed as 0.048 log2 fold change; in assay [1] (dose 0.40 uM), 0.051 log2 fold change; in assay [1] (dose 2.00 uM), −0.065 log2 fold change; in assay [1] (dose 10.00 uM), −0.290 log2 fold change. Also, the Dose.FC.CTG in assay [2] (dose 0.08 uM) is listed as −0.029 log2 fold change; in assay [2] (dose 0.40 uM), −0.165 log2 fold change; in assay [2] (dose 2.00 uM), −0.101 log2 fold change; in assay [2] (dose 10.00 uM), −0.462 log2 fold change. The Dose.FC.LYZ.NS is 0.103 log2 fold change in assay [3] (dose 0.08 uM), 0.030 log2 fold change in assay [3] (dose 0.40 uM), −0.056 log2 fold change in assay [3] (dose 2.00 uM) and −0.187 log2 fold change in assay [3] (dose 10.00 uM). The “Z.LYZ.NS (standard z score)” value is reported as 0.894 in assay [3] (dose 0.08 uM), 0.266 in assay [3] (dose 0.40 uM), −0.490 in assay [3] (dose 2.00 uM) and −1.630 in assay [3] (dose 10.00 uM).

Consider `CC(C)(C)c1cc(NC(=O)Nc2ccc(-c3cn4c(n3)sc3cc(OCCN5CCOCC5)ccc34)cc2)no1` [Quizartinib (AC220)], for which the Dose.FC.LYZ.S in assay [1] (setting [4]) is recorded as 0.154 log2 fold change; in assay [1] (setting [5]), 0.083 log2 fold change; in assay [1] (setting [6]), −0.077 log2 fold change; in assay [1] (setting [7]) it was −0.200 log2 fold change. Further, the Dose.FC.CTG in assay [2] (setting [4]) was 0.351 log2 fold change; in assay [2] (setting [5]) it was 0.149 log2 fold change; in assay [2] (setting [6]), −0.352 log2 fold change; in assay [2] (setting [7]) it was −0.644 log2 fold change. Besides, the Z.CTG in assay [2] (dose 0.08 uM) is recorded as 0.838; in assay [2] (dose 0.40 uM), 0.355; in assay [2] (dose 2.00 uM) it was −0.841; in assay [2] (dose 10.00 uM), −1.539. In addition, the Dose.FC.LYZ.NS in assay [3] (setting [4]) is listed as 0.096 log2 fold change; in assay [3] (setting [5]), 0.039 log2 fold change; in assay [3] (setting [6]), −0.052 log2 fold change; in assay [3] (setting [7]) it was −0.173 log2 fold change. The Z.LYZ.NS is given as 0.836 in assay [3] (dose 0.08 uM), 0.341 in assay [3] (dose 0.40 uM), −0.452 in assay [3] (dose 2.00 uM) and −1.505 in assay [3] (dose 10.00 uM).
